Measured values published in patent US20100041089A1, “IMPROVED METHOD FOR DETECTING CHEMICAL […]” (priority 2006, published 2010).

System: yeast genes (expressed mRNA)
Test: DNA chip measurement of expressed mRNA of yeast genes after culture with a toxic chemical substance
Format: cell-based, Saccharomyces cerevisiae S288C
Summary of the method: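 S. cerevisiae S288C grown at 25 °C in YPD, exposed in log phase for 2 h to a toxicant at growth-inhibiting, non-lethal concentration. Cy3/Cy5-labelled cDNA from poly(A) mRNA hybridized to whole-genome chip at 65 °C >12 h. Ratio to untreated control, ≥2 significant.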

SMILES: C[S+](C)[O-] [(15), Dimethyl sulfoxide]
- The level of expressed mRNA in the presence of chemical substance/The level of expressed mRNA in the absence of chemical substance, yeast gene YDL067C (gene YDL067C (mitochondria-located protein gene), yeast cultured two hours with chemical substance, DNA chip fluorescence ratio to control): 0.7
- The level of expressed mRNA in the presence of chemical substance/The level of expressed mRNA in the absence of chemical substance, yeast gene YDR079W (gene YDR079W (mitochondria-located protein gene), yeast cultured two hours with chemical substance, DNA chip fluorescence ratio to control): 0.6
- The level of expressed mRNA in the presence of chemical substance/The level of expressed mRNA in the absence of chemical substance, yeast gene YGR062C (gene YGR062C (mitochondria-located protein gene), yeast cultured two hours with chemical substance, DNA chip fluorescence ratio to control): 0.5
- The level of expressed mRNA in the presence of chemical substance/The level of expressed mRNA in the absence of chemical substance, yeast gene YJL096W (gene YJL096W (mitochondria-located protein gene), yeast cultured two hours with chemical substance, DNA chip fluorescence ratio to control): 1.0
- The level of expressed mRNA in the presence of chemical substance/The level of expressed mRNA in the absence of chemical substance, yeast gene YJL180C (gene YJL180C (mitochondria-located protein gene), yeast cultured two hours with chemical substance, DNA chip fluorescence ratio to control): 0.6
- level of expressed mRNA in the presence of chemical substance / level in the absence of chemical substance (yeast gene YAL018C, cultured two hours with the chemical substance): 6.9
- level of expressed mRNA in the presence of chemical substance / level in the absence of chemical substance (yeast gene YAR047C, cultured two hours with the chemical substance): 0.5
- level of expressed mRNA in the presence of chemical substance / level in the absence of chemical substance (yeast gene YAR064W, cultured two hours with the chemical substance): 1.9
- level of expressed mRNA in the presence of chemical substance / level in the absence of chemical substance (yeast gene YBL044W, cultured two hours with the chemical substance): 0.7
- level of expressed mRNA in the presence of chemical substance / level in the absence of chemical substance (yeast gene YBR012C, cultured two hours with the chemical substance): 1.1
- The level of expressed mRNA in the presence of chemical substance/The level of expressed mRNA in the absence of chemical substance (yeast gene YBR047W, cultured two hours with substance): 0.8
- level of expressed mRNA in the presence of chemical substance / level in the absence of chemical substance (yeast gene YBR066C, cultured two hours with the chemical substance): 0.4
- The level of expressed mRNA in the presence of chemical substance/The level of expressed mRNA in the absence of chemical substance (yeast gene YBR100W, cultured two hours with the chemical substance): 1.3
- level of expressed mRNA in the presence of chemical substance / level in the absence of chemical substance (yeast gene YBR124W, cultured two hours with the chemical substance): 1.0
- level of expressed mRNA in the presence of chemical substance / level in the absence of chemical substance (yeast gene YBR162C, cultured two hours with the chemical substance): 1.9
- The level of expressed mRNA in the presence of chemical substance/The level of expressed mRNA in the absence of chemical substance (yeast gene YBR273C, cultured two hours with substance): 0.8
- level of expressed mRNA in the presence of chemical substance / level in the absence of chemical substance (yeast gene YBR287W, cultured two hours with the chemical substance): 1.3
- The level of expressed mRNA in the presence of chemical substance/The level of expressed mRNA in the absence of chemical substance (yeast gene YCL009C): 6.5
- The level of expressed mRNA in the presence of chemical substance/The level of expressed mRNA in the absence of chemical substance (yeast gene YCL040W, cultured for two hours with substance): 3.4
- The level of expressed mRNA in the presence of chemical substance/The level of expressed mRNA in the absence of chemical substance (yeast gene YCL049C, cultured two hours with substance): 1.4
- level of expressed mRNA in the presence of chemical substance / level in the absence of chemical substance (yeast gene YCL056C, cultured two hours with the chemical substance): 1.7
- level of expressed mRNA in the presence of chemical substance / level in the absence of chemical substance (yeast gene YCR007C, cultured two hours with the chemical substance): 0.8
- The level of expressed mRNA in the presence of chemical substance/The level of expressed mRNA in the absence of chemical substance (yeast gene YCR030C, cultured two hours with the chemical substance): 1.3
- The level of expressed mRNA in the presence of chemical substance/The level of expressed mRNA in the absence of chemical substance (yeast gene YCR082W, cultured two hours with substance): 1.6
- The level of expressed mRNA in the presence of chemical substance/The level of expressed mRNA in the absence of chemical substance (yeast gene YCR107W, cultured for two hours with substance): 4.8
- level of expressed mRNA in the presence of chemical substance / level in the absence of chemical substance (yeast gene YDL046W, cultured two hours with the chemical substance): 2.3
- The level of expressed mRNA in the presence of chemical substance/The level of expressed mRNA in the absence of chemical substance (yeast gene YDL110C, cultured two hours with substance): 1.3
- The level of expressed mRNA in the presence of chemical substance/The level of expressed mRNA in the absence of chemical substance (yeast gene YDL222C, cultured two hours with substance): 7.1
- The level of expressed mRNA in the presence of chemical substance/The level of expressed mRNA in the absence of chemical substance (yeast gene YDR031W, cultured two hours with substance): 0.8
- The level of expressed mRNA in the presence of chemical substance/The level of expressed mRNA in the absence of chemical substance (yeast gene YDR032C, cultured two hours with substance): 1.3
- level of expressed mRNA in the presence of chemical substance / level in the absence of chemical substance (yeast gene YDR090C, cultured two hours with the chemical substance): 1.1
- level of expressed mRNA in the presence of chemical substance / level in the absence of chemical substance (yeast gene YDR128W, cultured two hours with the chemical substance): 1.4
- level of expressed mRNA in the presence of chemical substance / level in the absence of chemical substance (yeast gene YDR133C, cultured two hours with the chemical substance): 0.6
- level of expressed mRNA in the presence of chemical substance / level in the absence of chemical substance (yeast gene YDR250C, cultured two hours with the chemical substance): 0.7
- level of expressed mRNA in the presence of chemical substance / level in the absence of chemical substance (yeast gene YDR278C, cultured two hours with the chemical substance): 0.7
- level of expressed mRNA in the presence of chemical substance / level in the absence of chemical substance (yeast gene YDR281C, cultured two hours with the chemical substance): 0.3
- level of expressed mRNA in the presence of chemical substance / level in the absence of chemical substance (yeast gene YDR366C, cultured two hours with the chemical substance): 1.4
- The level of expressed mRNA in the presence of chemical substance/The level of expressed mRNA in the absence of chemical substance (yeast gene YDR434W, cultured two hours with substance): 1.3
- The level of expressed mRNA in the presence of chemical substance/The level of expressed mRNA in the absence of chemical substance (yeast gene YDR476C, cultured two hours with substance): 2.2
- The level of expressed mRNA in the presence of chemical substance/The level of expressed mRNA in the absence of chemical substance (yeast gene YDR497C (transport facilitation protein gene)): 10.1
- The level of expressed mRNA in the presence of chemical substance/The level of expressed mRNA in the absence of chemical substance (yeast gene YDR511W, cultured two hours with substance): 0.8
- The level of expressed mRNA in the presence of chemical substance/The level of expressed mRNA in the absence of chemical substance (yeast gene YDR520C, cultured two hours with substance): 1.3
- The level of expressed mRNA in the presence of chemical substance/The level of expressed mRNA in the absence of chemical substance (yeast gene YER014W, mitochondria-located protein gene, cultured two hours with substance): 2.3
- The level of expressed mRNA in the presence of chemical substance/The level of expressed mRNA in the absence of chemical substance (yeast gene YER038C, cultured two hours with substance): 0.8
- The level of expressed mRNA in the presence of chemical substance/The level of expressed mRNA in the absence of chemical substance (yeast gene YER106W, cultured two hours with substance): 6.8
- The level of expressed mRNA in the presence of chemical substance/The level of expressed mRNA in the absence of chemical substance (yeast gene YER175C, cultured two hours with substance): 1.3
- level of expressed mRNA in the presence of chemical substance / level in the absence of chemical substance (yeast gene YFR026C, cultured two hours with the chemical substance): 2.3
- The level of expressed mRNA in the presence of chemical substance/The level of expressed mRNA in the absence of chemical substance (yeast gene YGL037C, cultured two hours with substance): 0.8
- level of expressed mRNA in the presence of chemical substance / level in the absence of chemical substance (yeast gene YGL088W, cultured two hours with the chemical substance): 0.4
- The level of expressed mRNA in the presence of chemical substance/The level of expressed mRNA in the absence of chemical substance (yeast gene YGL204C, cultured two hours with substance): 0.8
- The level of expressed mRNA in the presence of chemical substance/The level of expressed mRNA in the absence of chemical substance (yeast gene YGL259W, cultured two hours with substance): 1.3
- The level of expressed mRNA in the presence of chemical substance/The level of expressed mRNA in the absence of chemical substance (yeast gene YGR010W, cultured two hours with substance): 1.3
- level of expressed mRNA in the presence of chemical substance / level in the absence of chemical substance (yeast gene YGR038W, cultured two hours with the chemical substance): 1.1
- level of expressed mRNA in the presence of chemical substance / level in the absence of chemical substance (yeast gene YGR139W, cultured two hours with the chemical substance): 2.3
- The level of expressed mRNA in the presence of chemical substance/The level of expressed mRNA in the absence of chemical substance (yeast gene YGR141W, cultured two hours with the substance): 2.6
- The level of expressed mRNA in the presence of chemical substance/The level of expressed mRNA in the absence of chemical substance (yeast gene YGR142W, cultured two hours with substance): 1.3
- The level of expressed mRNA in the presence of chemical substance/The level of expressed mRNA in the absence of chemical substance (yeast gene YGR153W, cultured two hours with substance): 1.3
- level of expressed mRNA in the presence of chemical substance / level in the absence of chemical substance (yeast gene YGR243W, cultured two hours with the chemical substance): 0.8
- level of expressed mRNA in the presence of chemical substance / level in the absence of chemical substance (yeast gene YGR293C, cultured two hours with the chemical substance): 0.7
- level of expressed mRNA in the presence of chemical substance / level in the absence of chemical substance (yeast gene YHL006C, cultured two hours with the chemical substance): 0.6
- level of expressed mRNA in the presence of chemical substance / level in the absence of chemical substance (yeast gene YHR095W, cultured two hours with the chemical substance): 0.8
- level of expressed mRNA in the presence of chemical substance / level in the absence of chemical substance (yeast gene YHR105W, cultured two hours with the chemical substance): 0.9
- The level of expressed mRNA in the presence of chemical substance/The level of expressed mRNA in the absence of chemical substance (yeast gene YHR138C, cultured two hours with substance): 2.2
- The level of expressed mRNA in the presence of chemical substance/The level of expressed mRNA in the absence of chemical substance (yeast gene YHR142W): 4.8
- level of expressed mRNA in the presence of chemical substance / level in the absence of chemical substance (yeast gene YHR181W, cultured two hours with the chemical substance): 1.4
- The level of expressed mRNA in the presence of chemical substance/The level of expressed mRNA in the absence of chemical substance (yeast gene YIL041W, cultured two hours with substance): 1.3
- The level of expressed mRNA in the presence of chemical substance/The level of expressed mRNA in the absence of chemical substance (yeast gene YIL060W, cultured two hours with substance): 1.3
- The level of expressed mRNA in the presence of chemical substance/The level of expressed mRNA in the absence of chemical substance (yeast gene YIL117C, cultured two hours with substance): 7.5
- level of expressed mRNA in the presence of chemical substance / level in the absence of chemical substance (yeast gene YIL127C, cultured two hours with the chemical substance): 0.7
- The level of expressed mRNA in the presence of chemical substance/The level of expressed mRNA in the absence of chemical substance (yeast gene YIL143C, DNA repair protein genes, cultured two hours with substance): 1.3
- The level of expressed mRNA in the presence of chemical substance/The level of expressed mRNA in the absence of chemical substance (yeast gene YIR041W, cultured two hours with the chemical substance): 1.3
- level of expressed mRNA in the presence of chemical substance / level in the absence of chemical substance (yeast gene YJL017W, cultured two hours with the chemical substance): 1.1
- The level of expressed mRNA in the presence of chemical substance/The level of expressed mRNA in the absence of chemical substance (yeast gene YJL034W (transport facilitation protein gene)): 7.9
- level of expressed mRNA in the presence of chemical substance / level in the absence of chemical substance (yeast gene YJL037W, cultured two hours with the chemical substance): 1.6
- The level of expressed mRNA in the presence of chemical substance/The level of expressed mRNA in the absence of chemical substance (yeast gene YJL066C, cultured two hours with substance): 1.3
- level of expressed mRNA in the presence of chemical substance / level in the absence of chemical substance (yeast gene YJL097W, cultured two hours with the chemical substance): 1.1
- The level of expressed mRNA in the presence of chemical substance/The level of expressed mRNA in the absence of chemical substance (yeast gene YJL108C, cultured two hours with substance): 4.0
- The level of expressed mRNA in the presence of chemical substance/The level of expressed mRNA in the absence of chemical substance (yeast gene YJL149W, cultured two hours with substance): 9.0
